Consider one molecule from patent US6432924B1, “Method of treating disorders characterized by overexpression of cytidine deaminase or deoxycytidine deaminase” (East Carolina University, priority 1993, dated 2002).

Each structure is given as a SMILES string.

One experiment deals with HT-29SF^CD cells. Briefly: Transwell culture, 5mAZC exposure of cytidine deaminase overexpressing cells. The format is cell-based, human. The settings on record: for Number of viable cells HT-29SF^CD: quintuplicate, Transwell. How it is done: (§1) HT-29SF^CD cells are a subline of HT-29SF human colonic adenocarcinoma cells that were selected for overexpression of cytidine deaminase. HT-29SF cells were plated in the bottom compartment, and HT-29SF^CD cells in the top compartment of a “Transwell” culture dish (1,000 cells each). A semipermeable membrane separates the two compartments of the Transwell, such that any drug administered in the tissue culture media bathe both compartments equally. 5-mAZC was administered continuously for 72 hrs. at the indicated concentrations. The numbers in the x-axis indicate the concentration (in μM) at which 5mAZC was administered continuously for 72 hours. The numbers on the y-axis indicate the number of surviving cells. The circular (●) data points represent the dose response for the HT-29SF^CD cells. The square (▪) data points represent the dose response for the HT-29SF cells.
HT-29SF human adenocarcinoma cells naturally express a high level of cytidine deaminase (CD). HT-29SF^CD is a subline of the HT-29SF line that express even higher CD levels than normal (about 5.4 times the expression level of HT-29SF cells). In order to see whether cells that overexpress cytidine deaminase are more sensitive to 5mAZC than other cells, HT-29SF^CD cells were plated in the top compartment of a Transwell culture dish, while HT-29SF cells were placed in the bottom compartment (1000 cells each). A semipermeable membrane separated the two compartments of the Transwell, such that drugs administered in the tissue culture media bathe both compartments equally. 5mAZC was administered continuously for 72 hrs at concentrations ranging from 0 μM to 50 μM. The results of this experiment confirm the idea that cells that highly overexpress CD are sensitive to 5mAZC.
Based upon the results obtained in example 1 above, a dose of 50 μM 5mAZC was selected for more in-depth analysis. Two experiments were performed, in quintuplicate, in the same Transwell dishes, containing the HT-29SF cells and the HT-29SF^CD cells in compartments separated only by a membrane permeable to 5mAZC.

The subject of experiment [1] is HT-29SF cells. Briefly: Transwell culture, 5mAZC exposure of parent cells. It counts as cell-based, human. Conditions: quintuplicate. Here is the method: as §1
HT-29SF human adenocarcinoma cells naturally express a high level of cytidine deaminase (CD). HT-29SF^CD is a subline of the HT-29SF line that express even higher CD levels than normal (about 5.4 times the expression level of HT-29SF cells). In order to see whether cells that overexpress cytidine deaminase are more sensitive to 5mAZC than other cells, HT-29SF^CD cells were plated in the top compartment of a Transwell culture dish, while HT-29SF cells were placed in the bottom compartment (1000 cells each). […]

The subject of experiment [2] is HT-29SF^CD (cytidine deaminase producing)cells. Briefly: Human tumor xenograft model, HT-29SF^CD tumor (right scapular region). The format is in vivo, Balb/C nu/nu mice. Conditions: 150 mg/kg twice daily intraperitoneal, 5 weeks, N=2. How it is done:
(§2) One of these mice received twice daily intraperitoneal doses of 150 mg/kg of 5mAZC. The other mouse received saline only. This treatment continued for 5 weeks, at which time the animals were euthanized and the solid tumors were dissected free and weighed.

Experiment [3] relates to HT-29SF (non cytidine deaminase producing)cells. Briefly: Human tumor xenograft model, HT-29SF tumor (left scapular region). It counts as in vivo, Balb/C nu/nu mice. Conditions: 150 mg/kg twice daily intraperitoneal, 5 weeks, N=2. How it is done:
as §2
(In xenograft studies the graft and the host belong to different species.)

The subject of experiment [4] is HT-29SF cells. Briefly: HT-29SF subcutaneous xenograft, tumor volume on Day 29. The format is in vivo, BALB/c nude mice. Here is the method: In another experiment, thirty BALB/c nude mice received subcutaneous injections of 5×10^6 HT-29SF cells. Twelve of the animals received 600 mg/kg/day 5mAZC in the flank for 28 days. Eighteen animals received saline injections on the same schedule. On Day 29, the animals were sacrificed and the tumor volume was quantified by standard methods. The average tumor volume for the control group receiving saline was 509±292 mm . […] The results of Examples 2 and 3 show clearly that 5mAZC is activated in vitro and in vivo into molecular species exclusively toxic to tumor cells that overexpress cytidine deaminase.

Setting [5] is: Experiment 1, 50 μM 5mAZC, 1000 cells plated.

Regarding `Cc1cn([C@H]2C[C@H](N=[N+]=[N-])[C@@H](CO)O2)c(=O)nc1N` [5mAZC, 5-methyl-2′,3′-dideoxy-3′-azidocytidine], the “Number of viable cells HT-29SF^CD” value in the experiment with HT-29SF^CD cells (setting [5]) is reported as 33.8 ± 17.1; in the experiment with HT-29SF^CD cells (second experiment (head prints Example 2), 50 μM 5mAZC) it was 45.4 ± 15.6. Besides, the “sensitivity of cells that highly overexpress CD to 5mAZC (number of surviving cells, FIG. 1)” value in the experiment on HT-29SF^CD cells (HT-29SF^CD cells, 0 μM to 50 μM continuously for 72 hrs) was “sensitive”. The “Number of viable cells HT-29SF” value with HT-29SF cells [1] (setting [5]) is 797 ± 68; with HT-29SF cells [1] (second experiment, 50 μM 5mAZC), 867.2 ± 29.4. The “tumor weight HT-29SF^CD+5mAZC” value in experiment [2] is 0.22 g. Further, the “tumor weight HT-29SF+5mAZC” value in experiment [3] stood at 1.02 ± 0.13 g. The “average reduction in size (tumor volume vs saline control)” value in the experiment on HT-29SF cells [4] (600 mg/kg/day for 28 days) was found to be 46%. The molecule further gave an average tumor volume with HT-29SF cells [4] (600 mg/kg/day in the flank for 28 days, saline control 509±292) of 273±97 mm^3.
